Source: US5378706A, “Fused-thiazole derivatives active on the cholinergic system, and pharmaceutical compositions containing same” (Sanofi, priority 1987, dated 1995)
Like-named read-outs stand apart in the source and are kept apart here.

How the values were obtained:
[1] = biological target: T1, M2 -type muscarinic cholinergic receptor (Cavia porcellus, UniProt H0VRN8); test: Affinity for the M2-type muscarinic cholinergic receptor, displacement of tritiated N-methylscopolamine (3H-NMS) on smooth guinea-pig ileum muscle homogenate; assay type: binding
T1 construct: on a smooth guinea-pig ileum muscle homogenate; from tissue; host or cells: guinea-pig ileum smooth muscle homogenate
T1 sequence (H0VRN8 1-466): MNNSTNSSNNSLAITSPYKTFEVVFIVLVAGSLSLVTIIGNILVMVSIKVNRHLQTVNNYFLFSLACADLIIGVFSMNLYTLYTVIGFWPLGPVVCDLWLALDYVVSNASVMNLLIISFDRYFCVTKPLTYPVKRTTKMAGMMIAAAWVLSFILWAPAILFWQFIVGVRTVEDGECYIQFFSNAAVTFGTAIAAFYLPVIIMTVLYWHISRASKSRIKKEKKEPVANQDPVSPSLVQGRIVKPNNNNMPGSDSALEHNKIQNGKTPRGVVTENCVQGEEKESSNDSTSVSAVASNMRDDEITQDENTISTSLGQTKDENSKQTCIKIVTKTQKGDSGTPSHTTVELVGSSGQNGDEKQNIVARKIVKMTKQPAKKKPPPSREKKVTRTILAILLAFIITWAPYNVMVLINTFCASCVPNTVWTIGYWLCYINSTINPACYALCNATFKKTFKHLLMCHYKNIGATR
Experimental: The M1 -type receptors are concentrated in certain regions of the brain, such as the hippocampus, the cerebral cortex and the striatum, and also in the sympathetic ganglia. These binding sites can be selectively labeled with tritiated pirenzepine (^3 H-PZ). The M2 -type receptors predominate in the heart and the ileum and can be labeled with tritiated N-methyl-scopolamine (^3 H-NMS). The selectivity of the products of the invention with respect to the M1 and M2 sites was determined by studying their in vitro interaction with ^3 H-PZ and ^3 H-NMS firmly bound with a high affinity to rat hippocampus membranes and smooth guinea-pig ileum muscle, respectively.
The interaction with the M2 -type muscarinic receptors was studied by in vitro measurement, on a smooth guinea-pig ileum muscle homogenate, of the displacement of tritiated N-methylscopolamine from its specific binding sites. […] The final volume is 1 ml. The reaction is stopped by centrifugation for 5 minutes at 15,000×g. The non-specific binding is determined in the presence of 10 mM atropine sulfate.
The IC50 for ^3 H-PZ displacement represents the affinity for the M1 receptor; the IC50 for ^3 H-NMS displacement represents the affinity for the M2 receptor.

[2] = tested on: M1 central muscarinic cholinergic receptors; test: Antagonism of rotations induced by intrastriatal injection of pirenzepine in mice; assay type: in vivo, mice (Swiss, CD 1); settings: for Pirenzepine antagonism ED50 i.p.: 15 minutes before intrastriatal pirenzepine 1 μg; for Pirenzepine antagonism ED50 p.o.: 30 minutes before intrastriatal pirenzepine 1 μg
Experimental: Pirenzepine (PZ) is a specific antagonist of the M1 central muscarinic cholinergic receptors. The intrastriatal injection of PZ into mice induces rotatory behavoir. The antagonism of this behavoir by the products according to the invention was studied.
The products according to the invention are administered either intraperitoneally (i.p.) or orally (p.o.) after solubilization in distilled water or suspension in a 5% solution of gum arabic. The control animals receive the pure solvent under the same conditions.
The animals used are female mice (Swiss, CD 1, Charles River, France) with a body weight of between 25 and 30 grams.
The pirenzepine is dissolved in a phosphate buffer and the pH of the solution is 6.
The test products or their solvents are administered in a volume of 0.4 ml per 20 g of body weight, either by i.p. injection or orally via an esophageal tube.
The number of contralateral rotations (rotations in the opposite direction to the side injected) was counted for three 2-minute periods after injection of the pirenzepine: 2nd to 4th, 8th to 10th and 13th to 15th minutes. Each treatment consists of 3 to 4 doses and 10 animals per dose. The total number of rotations and the percentage antagonism with respect to the control group are calculated for each treatment.

[3] = biological target: T2, M1 -type muscarinic cholinergic receptor (Rattus norvegicus, UniProt P08482); test: biochemical; assay type: binding; settings: for ratio R of the IC50 values for the M1 and M2 receptors: selectivity, values correspond to IC50 M2 / IC50 M1
T2 sequence (P08482 1-460): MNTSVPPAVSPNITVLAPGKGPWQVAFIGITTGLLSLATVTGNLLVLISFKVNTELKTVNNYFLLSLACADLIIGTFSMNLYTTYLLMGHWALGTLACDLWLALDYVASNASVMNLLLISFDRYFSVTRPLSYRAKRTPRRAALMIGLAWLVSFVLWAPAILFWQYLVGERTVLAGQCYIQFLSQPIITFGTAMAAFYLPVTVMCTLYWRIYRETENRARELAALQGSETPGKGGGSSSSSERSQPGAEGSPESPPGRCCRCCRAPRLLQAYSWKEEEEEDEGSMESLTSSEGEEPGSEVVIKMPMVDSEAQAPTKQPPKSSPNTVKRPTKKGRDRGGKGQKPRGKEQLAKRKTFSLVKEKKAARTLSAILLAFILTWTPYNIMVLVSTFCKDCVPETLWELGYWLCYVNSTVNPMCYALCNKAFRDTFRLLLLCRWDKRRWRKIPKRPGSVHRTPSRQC
Experimental: The interaction of the molecules with the M1 -type muscarinic receptors was studied by in vitro measurement, on a rat hippocampus homogenate, of the displacement of tritiated pirenzepine from its specific binding sites. Aliquots (10 μl) of a 5% (w/v) rat hippocampus homogenate in an Na2 HPO4 buffer (50 mM, pH 7.40) are incubated for 2 hours at 4° C. in the presence of ^3 H-PZ (76 Ci/mmol; final concentration 1 nM) and increasing concentrations of the test product. The final volume is 2 ml. The reaction is stopped by centrifugation for 10 minutes at 50,000×g. After decantation and washing of the residues, the bound radioactivity is counted by liquid scintillation. The non-specific binding is determined in the presence of 10 μM atropine sulfate.

[4] = Acute toxicity, 24 hours mortality after i.p. administration to mice; settings: mouse, in vivo, ip, female mice, 20 g
Experimental: Finally, the acute toxicity was determined for various products according to the invention. The products were administered intraperitoneally in increasing doses to groups of 10 female mice (Swiss, CD 1, Charles River, France) with a body weight of 20 g.

[5] = guinea-pig ileum smooth muscle homogenate, 3H-NMS 0.3 nM, 20 minutes at 30° C., pH 7.5, read-out: IC50 3H-NMS (M2)
[6] = rat hippocampus homogenate, 3H-PZ 1 nM, 2 hours at 4° C., pH 7.40, read-out: IC50 3H-PZ (M1)

Structure (SMILES) | IC50 [1] | Pirenzepine antagonism ED50 i.p. [2] | Pirenzepine antagonism ED50 p.o. [2] | IC50 [3] | ratio R of the IC50 values for the M1 and M2 receptors [3] | LD50 at 24 h [4] | IC50 [1, 5] | IC50 ([3]; read-out: IC50 3H-PZ (M1)) | IC50 [3, 6]
COC(=O)C1=CCCN(C)C1 [Arecoline, reference compound] | 4.5 µM | 1 mg/kg | 0.5 mg/kg | – | – | – | – | – | –
O=C1CCCN1CC#CCN1CCCC1 [Oxotremorine, reference compound] | 0.2 µM | 0.005 mg/kg | – | 0.24 µM | 1 | – | – | – | –
Cl.Cl.c1ccc2c(c1)CCc1sc(NCCN3CCOCC3)nc1-2 [SR 44273 A, 2-(2-Morpholinoethylamino)-4,5-dihydronaphtho[1,2-d]thiazole dihydrochloride] | – | – | – | – | – | > 100 mg/kg | – | – | –
CCN(CC)CCNc1ncc(-c2ccccc2)s1.Cl.Cl [SR 44318 A, 2-[(2-Diethylaminoethyl)amino]-5-phenylthiazole dihydrochloride] | – | 1.5 mg/kg | 3 mg/kg | – | 11 | – | 38 µM | 3.4 µM | –
CCN(CC)CCNc1nc2c(s1)CCCc1ccccc1-2 [SR 44323 A] | – | 10 mg/kg | – | – | 5 | – | 8.5 µM | – | 1.7 µM
CCN(CC)CCCNc1nc2c(s1)CCCc1ccccc1-2 [SR 44326 A] | – | 3 mg/kg | – | – | > 45 | – | > 100 µM | – | 2.2 µM
CN(C)CCCNc1nc2c(s1)CCCc1ccccc1-2 [SR 44327 A] | – | 10 mg/kg | – | – | 20 | – | 38 µM | – | 1.9 µM
CCN(CC)CCCNc1ncc(-c2ccccc2)s1 [SR 44346 A] | – | 1 mg/kg | – | – | 12.5 | – | 25 µM | – | 2 µM
CCN(CC)CCNc1nc2c(s1)CCc1ccccc1-2 [SR 44393 A] | – | 3 mg/kg | – | – | 15 | – | 42 µM | – | 2.7 µM
CCN(CC)CCNc1nc2c(s1)CCCc1ccc([N+](=O)[O-])cc1-2.Cl.Cl [SR 44411 A, 2-[(2-Diethylaminoethyl)amino]-9-nitro-5,6-dihydro-4H-benzo[6,7]cyclohepta[1,2-d]thi azole dihydrochloride] | – | 15 mg/kg | – | – | 7 | – | 6.7 µM | 0.9 µM | –
Cc1cc(C)c(-c2csc(NCCCN(C)C)n2)c(C)c1 [SR 44421 A] | – | – | 0.2 mg/kg | – | > 27 | – | > 100 µM | – | 3.6 µM
CCN(CC)CCCNc1nc(-c2ccccc2)c(-c2ccccc2)s1 [SR 44435 A] | – | 2 mg/kg | – | – | 8 | – | 3 µM | – | 0.36 µM
Cc1nc(NCCCN(C)C)sc1-c1ccccc1 [SR 44467 A] | – | – | 3 mg/kg | – | 25 | – | 38 µM | – | 1.5 µM
CN(C)CCCNc1nc(-c2ccc(Cl)cc2)cs1 [SR 44493 A] | – | – | 0.3 mg/kg | – | 28 | – | 45 µM | – | 1.6 µM
CN(C)CCCNc1nc(-c2ccc(F)cc2)cs1 [SR 44494 A] | – | – | 2 mg/kg | – | 100 | – | 80 µM | – | 0.8 µM
Cc1sc(NCCCN)nc1-c1ccccc1.Cl.Cl [SR 44514 A, 2-[(3-Aminopropyl)amino]-5-methyl-4-phenylthiazole dihydrochloride] | – | 3 mg/kg | – | – | > 200 | – | > 100 µM | 0.5 µM | –
CCN(CC)CCCNc1nc(-c2ccc3ccccc3c2)cs1 [SR 44573 A] | – | – | 2.50 mg/kg | – | 7 | – | 13 µM | – | 1.8 µM
CN(C)CCCNc1nc(-c2ccc(Cl)cc2Cl)cs1 [SR 44749 A] | – | – | 3 mg/kg | – | 14 | – | 26 µM | – | 1.8 µM
CN(C)CCCNc1nc(-c2ccc(F)cc2F)cs1 [SR 44770 A] | – | – | 3 mg/kg | – | 43 | – | 26 µM | – | 0.6 µM
Cc1cc(C)c(-c2csc(NCc3cccnc3)n2)c(C)c1 [SR 44839 A] | – | – | 0.2 mg/kg | – | 250 | – | 100 µM | – | 0.4 µM
Cc1cc(C)c(-c2csc(NCCc3ccncc3)n2)c(C)c1 [SR 44856 A] | – | – | 3 mg/kg | – | > 300 | – | > 100 µM | – | 0.3 µM
CN1CCN(CCCNc2nc(-c3ccc(F)cc3)cs2)CC1 [SR 44862 A] | – | – | 3 mg/kg | – | 11 | – | 34 µM | – | 3 µM
Cc1cc(C)c(-c2csc(NCCCN3CCN(C)CC3)n2)c(C)c1 [SR 44915 A] | – | – | 3 mg/kg | – | 100 | – | 40 µM | – | 0.4 µM
Cc1cc(C)c(-c2csc(NCCCN3CCCC3)n2)c(C)c1 [SR 44964 A] | – | – | 3 mg/kg | – | 31 | – | 28 µM | – | 0.9 µM
CCN1CCCC(Nc2nc(-c3c(C)cc(C)cc3C)cs2)C1 (centres unmarked) [SR 44965 A] | – | – | 3 mg/kg | – | 50 | – | 60 µM | – | 1.2 µM
Cc1ccccc1-c1csc(NCCCN(C)C)n1 [SR 45001 A] | – | – | 3 mg/kg | – | 11 | – | 30 µM | – | 2.6 µM
CN(C)CCCNc1nc(-c2ccccc2)c(-c2ccccc2)s1 [SR 45015 A] | – | – | 0.70 mg/kg | – | 13 | – | 4 µM | – | 0.3 µM
CN(C)CCCNc1nc(Cc2ccccc2)c(-c2ccccc2)s1 [SR 45016 A] | – | – | 2 mg/kg | – | 55 | – | 5.5 µM | – | 0.1 µM
CNCCCNc1nc(-c2c(C)cc(C)cc2C)cs1 [SR 45030 A] | – | – | 1 mg/kg | – | 50 | – | 80 µM | – | 1.6 µM
